This assay concerns Mycobacterium tuberculosis. Put plainly: Antibacterial activity against Mycobacterium tuberculosis H37Rv by agar proportion method. The assay is classed as functional.

Values after ≈ are worked out from the molar mass of the structure shown.

Consider `CC(=O)NC[C@H]1CN(c2ccc(N3CCOCC3)c(F)c2)C(=O)O1` [LINEZOLID], for which inhibition of growth (MIC) required 0.5 µg/mL (≈ 1.48 µM).

The values above are taken from ChEMBL document CHEMBL1671852, “In vitro activities of linezolid against clinical isolates of Mycobacterium tuberculosis complex isolated in Taiwan over 10 years” (2008).
